In ChEMBL document CHEMBL1139847, “Carbonic anhydrase inhibitors. DNA cloning, characterization, and inhibition studies of the human secretory isoform VI, a new target for sulfonamide and sulfamate inhibitors” (J Med Chem, 2007) one finds Ki data, which are given here for 20 compounds.

In one assay the target is Carbonic anhydrase 6 (Homo sapiens, UniProt P23280).
Another assay deals with Carbonic anhydrase 9 (Homo sapiens, UniProt Q16790).

SMILES strings stand for the structures.

Sequence of Carbonic anhydrase 6 (P23280 whole entry): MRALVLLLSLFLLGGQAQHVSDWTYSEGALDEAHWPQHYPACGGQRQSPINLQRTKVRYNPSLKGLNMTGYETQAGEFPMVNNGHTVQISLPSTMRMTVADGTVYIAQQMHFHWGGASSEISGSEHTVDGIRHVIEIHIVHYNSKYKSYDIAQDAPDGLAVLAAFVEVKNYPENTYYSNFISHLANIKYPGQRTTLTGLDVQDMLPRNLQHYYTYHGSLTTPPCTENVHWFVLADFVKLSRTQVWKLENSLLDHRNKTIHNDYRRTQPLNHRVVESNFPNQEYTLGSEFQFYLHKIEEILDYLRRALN

By Ki is commonly meant a dissociation constant, usually derived from enzyme kinetics or from competition with a known ligand. Low readings indicate higher affinity, high ones lower affinity. For the compound `Nc1ccc(S(N)(=O)=O)cc1` [SULFANILAMIDE], the Ki on Carbonic anhydrase 6 was 941 nM.

As for `NS(=O)(=O)c1ccc(CO)cc1`, at Carbonic anhydrase 6, the Ki was 6680 nM.

Turning to `Nc1nccc(Nc2ccc(S(N)(=O)=O)cc2)n1`, the affinity at Carbonic anhydrase 6, expressed as Ki, was 86 nM.

For the compound `Cc1ccc(S(N)(=O)=O)cc1` [P-TOLUENESULFONAMIDE], the Ki at Carbonic anhydrase 6 was found to be 1580 nM; on Carbonic anhydrase 9, 460 nM.

Regarding `Nc1ccc(S(=O)(=O)Nc2nnc(S(N)(=O)=O)s2)cc1`, the Ki on Carbonic anhydrase 6 was found to be 73 nM. This counts as double-digit nanomolar.

In the case of `Nc1ccc(S(=O)(=O)NCCc2ccc(S(N)(=O)=O)cc2)cc1`, on Carbonic anhydrase 6, affinity was put at a Ki of 24 nM.

`Nc1ccc(S(=O)(=O)NCc2ccc(S(N)(=O)=O)cc2)cc1` gave a Ki on Carbonic anhydrase 6 of 55 nM.

Consider `Nc1ccc(S(N)(=O)=O)cc1Cl`, for which affinity on Carbonic anhydrase 6 was put at a Ki of 1100 nM.

`NS(=O)(=O)c1ccc(CCO)cc1` had an inhibitory constant (Ki) at Carbonic anhydrase 6 of 4150 nM.

Turning to `Nc1ccccc1S(N)(=O)=O`, the affinity at Carbonic anhydrase 6, expressed as Ki, was 772 nM.

For the compound `NNc1ccc(S(N)(=O)=O)cc1`, on Carbonic anhydrase 6, the Ki was determined as 1270 nM.

For the compound `NCc1ccc(S(N)(=O)=O)cc1` [MAFENIDE], on Carbonic anhydrase 6, the Ki was determined as 4800 nM.

At Carbonic anhydrase 6, `NS(=O)(=O)c1ccc(C(=O)O)cc1` [CARZENIDE] registered a Ki of 887 nM.

In turn, `CCN[C@H]1CN(CCCOC)S(=O)(=O)c2sc(S(N)(=O)=O)cc21` [BRINZOLAMIDE] came in with a Ki at Carbonic anhydrase 6 of 0.9 nM.

In turn, `NS(=O)(=O)c1ccc(S(=O)(=O)Nc2cccc3c(Cl)c[nH]c23)cc1` showed a Ki on Carbonic anhydrase 6 of 47 nM.

As for `Nc1ccc(S(N)(=O)=O)cc1Br`, the affinity on Carbonic anhydrase 6, expressed as Ki, was 4680 nM.

As to `Nc1ccc(S(N)(=O)=O)cc1I`, the inhibition constant Ki on Carbonic anhydrase 6 worked out at 1020 nM.

At Carbonic anhydrase 6, `Cn1nc(S(N)(=O)=O)sc1=N` registered a Ki of 740 nM.

The compound `Nc1ccc(S(N)(=O)=O)cc1F` registered a Ki at Carbonic anhydrase 6 of 96 nM. Compared with the last compound, the Ki is about 7.7-fold lower.

`NNc1ccccc1S(N)(=O)=O` came in with a Ki at Carbonic anhydrase 6 of 1090 nM.
